These results are taken from patent publication US10597388B2, “Pyridazinone herbicides” (FMC CORPORATION, priority 2014, dated 2020).

Each structure is given as a SMILES string. Like-named read-outs stand apart in the source and are kept apart here.

Format in all cases: in vivo
In assay [1] the test system is momingglory (Ipomoea spp.). Briefly: Test A greenhouse herbicide test, pre- and postemergence. To be noted: Ipomoea, 240 h; for pest or weed control at 1000 g/ha: 1000 g ai/ha; for pest or weed control at 1000 g/ha / pest or weed control at 500 g/ha: 0 to 100 scale; for pest or weed control at 125 g/ha: 125 g ai/ha; for pest or weed control at 500 g/ha: 500 g ai/ha. In outline:
(§1)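 Seeds sown in loam–sand blend got a preemergence directed soil spray of compound in non-phytotoxic solvent with surfactant. Postemergence treatment was given at 2–10 cm, one- to two-leaf stage. After ~10 d in greenhouse, injury was rated visually vs untreated controls, 0 (no effect) to 100 (complete control).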

In assay [2] the test system is crabgrass, large (large crabgrass, Digitaria sanguinalis). The description is as above. To be noted: Digitaria sanguinalis, 240 h; for pest or weed control at 1000 g/ha: 1000 g ai/ha; for pest or weed control at 1000 g/ha / pest or weed control at 500 g/ha: 0 to 100 scale; for pest or weed control at 125 g/ha: 125 g ai/ha; for pest or weed control at 500 g/ha: 500 g ai/ha. In outline:
as §1

In assay [3] the test system is velvetleaf (Abutilon theophrasti). Described as above. To be noted: Abutilon theophrasti, 240 h; for pest or weed control at 1000 g/ha: 1000 g ai/ha; for pest or weed control at 1000 g/ha / pest or weed control at 500 g/ha: 0 to 100 scale; for pest or weed control at 125 g/ha: 125 g ai/ha; for pest or weed control at 500 g/ha: 500 g ai/ha. In outline:
as §1

Assay [4] concerns geranium, cutleaf (cutleaf geranium, Geranium dissectum). Put plainly: Test D controlled growth environment herbicide test, pre- and postemergence. In outline: (§2)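 Pre-emergence: seeds sown in silt loam soil were sprayed with compound in a non-phytotoxic solvent mix containing surfactant. Post-emergence: plants at 2 to 18 cm (1- to 4-leaf stage) in peat moss/vermiculite medium got the same formulation. Visual 0–100 rating versus controls after 14 to 21 d.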

The subject of assay [5] is Canada thistle (Cirsium arvense). Described as above. A digest of the protocol:
as §2

[6] abbreviates: post-emergence, Postemergence, 0 is no effect, 100 is complete control, read-out: Morningglory plant response rating.
Where [7] appears, read: pre-emergence, Preemergence, 0 no effect, 100 complete control, read-out: Plant response rating, Morningglory.
The mark [8] stands for this setting: post-emergence, Postemergence, 0 is no effect, 100 is complete control, read-out: Crabgrass, Large plant response rating.
Where [9] appears, read: pre-emergence, Preemergence, 0 no effect, 100 complete control, read-out: Plant response rating, Crabgrass, Large.
The mark [10] stands for this setting: post-emergence, Postemergence, 0 is no effect, 100 is complete control, read-out: Velvetleaf plant response rating.
Setting [11] is: pre-emergence, Preemergence, 0 no effect, 100 complete control, read-out: Plant response rating, Velvetleaf.
Where [12] appears, read: post-emergence, Postemergence, visual rating after approx. 10 d, 0 to 100 scale (0 no effect, 100 complete control), read-out: Plant response rating, Morningglory.
[13] abbreviates: pre-emergence, Preemergence, 0 to 100 scale where 0 is no effect and 100 is complete control, read-out: Morningglory plant response rating.
[14] abbreviates: post-emergence, Postemergence, visual rating after approx. 10 d, 0 to 100 scale (0 no effect, 100 complete control), read-out: Plant response rating, Crabgrass, Large.
Setting [15] is: pre-emergence, Preemergence, 0 to 100 scale where 0 is no effect and 100 is complete control, read-out: Crabgrass, Large plant response rating.
The mark [16] stands for this setting: post-emergence, Postemergence, visual rating after approx. 10 d, 0 to 100 scale (0 no effect, 100 complete control), read-out: Plant response rating, Velvetleaf.
The mark [17] stands for this setting: pre-emergence, Preemergence, 0 to 100 scale where 0 is no effect and 100 is complete control, read-out: Velvetleaf plant response rating.
The mark [18] stands for this setting: Postemergence, 31 g ai/ha, scale 0 to 100 (0 no effect, 100 complete control).
Where [19] appears, read: Postemergence, 125 g ai/ha, visual rating on scale 0 (no effect) to 100 (complete control), 14 to 21 d.
Setting [20] is: Postemergence, 250 g ai/ha, scale 0 to 100 (0 no effect, 100 complete control).
[21] abbreviates: Preemergence, 125 g ai/ha, scale 0 to 100 (0 no effect, 100 complete control).
[22] abbreviates: Preemergence, 250 g ai/ha, scale 0 to 100, 0 no effect, 100 complete control.
Setting [23] is: postemergence, 62 g ai/ha, scale 0 to 100, 0 no effect, 100 complete control.

For the compound `CCc1oc2ccc(C)cc2c1-c1c(O)c(C)nn(C)c1=O` [Compound 10, 4-(2-ethyl-5-methyl-3-benzofuranyl)-5-hydroxy-2,6-dimethyl-3(2H)-pyridazinone], the pest or weed control at 1000 g/ha in assay [1] (setting [6]) amounted to 100%; in assay [1] (setting [7]), 90%; in assay [2] (setting [8]), 70%; in assay [2] (setting [9]) it was 90%; in assay [3] (setting [10]) it was 100%; in assay [3] (setting [11]), 90%.

Take `Cc1nn(C)c(=O)c(-c2c(C)oc3cccc(C)c23)c1O` [Compound 8, 4-(2,4-dimethyl-3-benzofuranyl)-5-hydroxy-2,6-dimethyl-3(2H)-pyridazinone]: the pest or weed control at 125 g/ha in assay [1] (setting [12]) turned out to be 0%; in assay [1] (setting [13]) it was 0%; in assay [2] (setting [14]), 0%; in assay [2] (setting [15]), 10%; in assay [3] (setting [16]), 60%; in assay [3] (setting [17]) it was 0%. Also, the pest or weed control at 500 g/ha in assay [1] (setting [6]) came out at 10%; in assay [1] (setting [7]), 0%; in assay [2] (setting [8]), 30%; in assay [2] (setting [9]), 60%; in assay [3] (setting [10]) it was 60%; in assay [3] (setting [11]), 30%.

`Cc1nn(C)c(=O)c(-c2cccc3ccc(Br)cc23)c1O` [Compound 126]: the “Geranium, Cutleaf plant response rating” value in assay [4] (setting [18]) came out at 30. Also, the “Plant response rating, Geranium, Cutleaf” value in assay [4] (setting [19]) turned out to be 80; in assay [4] (setting [20]) it was 90; in assay [4] (setting [21]) it was 0; in assay [4] (setting [22]), 15; in assay [4] (setting [23]), 40. Besides, the “Plant response rating (scale of 0 to 100), Geranium, Cutleaf” value in assay [4] (Preemergence, 31 g ai/ha) is recorded as 0; in assay [4] (Preemergence, 62 g ai/ha) it was 0. The “Canada Thistle plant response rating” value in assay [5] (setting [18]) was found to be 98. Besides, the “Plant response rating, Canada Thistle” value came out at 98 in assay [5] (setting [19]); 100 in assay [5] (setting [20]); 15 in assay [5] (Preemergence, 62 g ai/ha, scale 0 to 100 (0 no effect, 100 complete control)); 95 in assay [5] (setting [21]); 95 in assay [5] (setting [22]); 100 in assay [5] (setting [23]). Further, the “Plant response rating (scale of 0 to 100), Canada Thistle” value in assay [5] (Preemergence, 31 g ai/ha) was found to be 0.

For the compound `Cc1nn(C)c(=O)c(-c2cccc3ccccc23)c1O` [Compound 11, 5-hydroxy-2,6-dimethyl-4-(1-naphthalenyl)-3(2H)-pyridazinone], the pest or weed control at 1000 g/ha in assay [1] (setting [6]) was found to be 90%; in assay [1] (setting [7]) it was 90%; in assay [2] (setting [8]) it was 70%; in assay [2] (setting [9]), 80%; in assay [3] (setting [10]), 100%; in assay [3] (setting [11]), 80%.

With `Cc1cc(C)c2sc(C)c(-c3c(O)c(C)nn(C)c3=O)c2c1` [Compound 2, 5-hydroxy-2,6-dimethyl-4-(2,5,7-trimethylbenzo[b]thien-3-yl)-3(2H)-pyridazinone], the pest or weed control at 125 g/ha in assay [1] (setting [12]) turned out to be 100%; in assay [1] (setting [13]) it was 80%; in assay [2] (setting [14]), 50%; in assay [2] (setting [15]) it was 90%; in assay [3] (setting [16]), 100%; in assay [3] (setting [17]), 80%. Further, the pest or weed control at 500 g/ha worked out at 100% in assay [1] (setting [6]); 100% in assay [1] (setting [7]); 70% in assay [2] (setting [8]); 100% in assay [2] (setting [9]); 100% in assay [3] (setting [10]); 90% in assay [3] (setting [11]).
